Entries after “also recorded” stand apart in the source; their conditions may differ. Marks after values point to notes of the source that are not given here.
Legend:
[1] = taken from Caravan et al.; cited from earlier work
[2] = Biodistribution study (Gd(III) in organs by ICP-MS); assay type: in vivo, mouse; conditions: mice, organs harvested 30 minute to 24 hour
[3] = tested on: PR(+) T47D and PR(−) MDA-MB-231 xenografted tumors; conditions: previously reported (ref. 19); cited from earlier work
[4] = tested on: PR(+) T47D and PR(−) MDA-MB-231 xenografted tumors; assay: In vivo MR imaging of xenografted nude mice (contrast-to-noise ratio); set-up: species or system mouse; conditions: for change in tumor CNR over preinjection levels: 2 and 6 h postinjection; for change in tumor CNR over preinjection levels / CNR of PR(+) tumor compared to PR(−) tumor: intraperitoneal; for CNR of PR(+) tumor compared to PR(−) tumor: 0.15 mmGd/kg in DMSO
Procedure: Female Balb/C athymic nude mice were acquired from Harlan (Indianapolis, Ind.) and housed under pathogen free conditions. All animal studies were conducted at Northwestern University in accordance with the National Institutes of Health Guide for the Care and Use of Laboratory Animals and established institutional animal use and care protocols. Due to low circulating estradiol levels in nude mice, a 17β-estradiol pellet (Innovative Research of America, Sarasota, FA, 70-day release, 0.72 mg/pellet) was implanted subcutaneously in the nape of the neck to ensure growth of estrogen-dependent T47D cells. Two to seven days later, T47D and MDA-MB-231 ((1−2)×10^6) cells were suspended in Matrigel (1:1 volume) and injected subcutaneously into the rear flank (T47D cells on the right side and MDA-MB-231 cells on the left). Mice were monitored for tumor growth every two to three days after injection of cells. Mice were imaged two to three weeks after xenografting when tumors were palpable with a minimum weight of 20 mg (determined after tumor removal postimaging).
Xenografted nude mice were injected intraperitoneally (n=1 per compound) with each agent (0.15 mmGd/kg) dissolved in 50 μL, DMSO. During imaging, mice were maintained under anesthesia (1-3% isoflurane) but were allowed to wake up and recover between imaging time points. Tubing containing heated water was positioned under the mouse to keep a constant body temperature. All MR imaging was performed on a 89 mm bore size PharmaScan 7.05 T MR imager fitted with shielded gradient coils (Bruker BioSpin, Billerica, Mass., USA) using a RF RES 300 1H 089/038 quadrature transmit receive volume coil (Bruker BioSpin, Billerica, Mass., USA). […] Images were analyzed using ImageJ. Contrast-to-noise ratio (CNR) was calculated using the equation CNR=(SITissue−SImuscle)/σnoise where SITumor is the signal intensity in the tumor, SIMuscle is the signal intensity in the muscle, and σnoise is the standard deviation of the noise. CNRs were averaged over two to three axial slices in which the tumors were clearly demarcated.
To determine whether the water-soluble progesterone-conjugated agents would increase the contrast-to-noise ratio (CNR) of PR(+) tumors relative to PR(−) tumors in vivo, athymic nude mice with PR(+) and PR(−) xenografted tumors were injected intraperitoneally with 1a, 2a, or 3a dissolved in DMSO and imaged at 2 and 6 h postinjection. Intraperitoneal injection was chosen over subcutaneous injection because it yielded more consistent results in previous studies, and the parent compound, ProGlo, has been more extensively studied for its biodistribution after intraperitoneal injection. (19) In addition, while these agents are water-soluble, they were dissolved in DMSO to compare back to previous in vivo imaging with the insoluble ProGlo and the control agent 4a.(19)

[5] = tested on: PR(+) (T47D) human breast cancer cells; assay: Cellular uptake studies (Example 17), PR(+) cells; assay type: cell-based; conditions: 0.125 mM for 1, 4, 10, 24 h or 0.25-2 mM for 4 h
Procedure: Contrast agents were dissolved in the appropriate medium (containing stripped FBS) for each cell line (T47D and MDA-MB-231) at concentrations of 2, 1, 0.5, 0.25, and 0.125 mM of contrast agent. For concentration-dependent cellular uptake, cells were incubated with 2, 1, 0.5, and 0.25 mM of each contrast agent for 4 h. For the time dependent cellular uptake, cells were incubated with 0.125 mM contrast agent for 1, 4, 10, and 24 h. After incubation, the media was removed, and the cells were rinsed twice with PBS and trypsinized. An aliquot was used for cell counting and the remaining portion was analyzed for Gd(III) content by ICP-MS. Each condition was done in triplicate.
To determine the cell permeability of the compounds, PR(+) (T47D) and PR(−) (MDA-MB-231) human breast cancer cells were incubated with 1a, 2a, 3a, and 4a. Time- and concentration-dependent experiments were performed to identify the optimal dose and incubation times of the agents (FIG. 16).

[6] = target: T1, progesterone receptor A ligand binding domain (amino acids 675-933) fused to GST (PR-LBD-GST) (Homo sapiens, UniProt P06401); assay: Receptor binding to nPR (fluorescence polarization, Example 17)
T1 construct: purchased Invitrogen
T1 sequence (P06401 675-933): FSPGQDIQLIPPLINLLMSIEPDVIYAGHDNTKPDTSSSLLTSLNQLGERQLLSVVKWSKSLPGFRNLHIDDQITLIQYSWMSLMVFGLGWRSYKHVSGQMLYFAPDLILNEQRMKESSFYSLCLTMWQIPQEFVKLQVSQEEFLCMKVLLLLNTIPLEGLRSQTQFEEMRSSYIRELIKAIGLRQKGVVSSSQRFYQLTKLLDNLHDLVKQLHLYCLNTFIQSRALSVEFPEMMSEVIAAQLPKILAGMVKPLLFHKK

[7] = tested on: PR / pPRE-luciferase in T47D cells; assay: Luciferase assay for nPR activation; assay type: cell-based, human; conditions: 24 h
Procedure: T47D cells were grown in phenol-free medium, and cells were trypsinized and plated in 24-well plate (50 000 cells/well). Incubation of cells with the pPRE-luciferase plasmid (100 ng/well, construct provided by Dr. Ken Korach, NIEHS, NIH), RSV-β-galactosidase (100 ng/well, provided by Dr. William T. Beck, University of Illinois at Chicago), and Lipofectamine 2000 (1 μL per well, Invitrogen, Carlsbad, Calif.) in Opti-MEM was performed overnight at 37° C. inside a humidified incubator. The cells were treated with 1a, 2a, 3a, and 4a for an additional 24 h.
To measure luciferase production, cells were lysed in 100 μL GME buffer (25 mM glycylglycine at pH 7.8, 15 mM MgSO4, 4 mM EGTA, 1 mM dithiothreitol, and 1% Triton X-100) and lysates were added to assay buffer (GME buffer, 16.5 mM KPO4, 2.2 mM ATP, and 1.1 mM dithiothreitol). Luciferase substrate was injected followed by a 30 s read by a FLUOstar OPTIMA (BMG Lab Tech, Offenburg, Germany). LacZ activity (50 μL lysate) was measured from cleavage of ONPG. The sample results were normalized to β-galactosidase to account for transfection efficiency by dividing the sum of the luciferase activity by the sum of the β-galactosidase activity. Fold change was calculated by taking the luciferase value, dividing by the β-galactosidase activity, and then dividing by the solvent control, which was set equal to one. […]

Molecule: CC(O)CN1CCN(CC(=O)[O-])CCN(CC(=O)[O-])CCN(CC(=O)[O-])CC1.[Gd+3] (centres unmarked) [Prohance]
- Relaxivity [1]: 3.7* mM^−1s^−1

Molecule: CCCCCCN1CCN(CC(=O)[O-])CCN(CC(=O)[O-])CCN(CC(=O)[O-])CC1.[Gd+3] [hexyl-DO3A-Gd(III)]
- tissue distribution of Gd(III) (percentage per gram of tissue) [2]: mainly end up in the liver and kidney

Molecule: DO3A-Gd(III)
- tumor CNR after injection [3]: only minimal increases in CNR over time
- tissue distribution of Gd(III) (percentage per gram of tissue) [2]: mainly end up in the liver and kidney

Molecule: {2,2′,2″-(10-(2-(((1-(5-(2-(10,13-Dimethyl-3-oxo-2,3,6,7,8,9,10,11,12,13,14,15,16,17-tetradecahydro-1H-cyclopenta[a]phenanthren-17-yl)-2-oxoethoxy)pentyl)-1H-1,2,3-triazol-4-yl)methyl)amino)-2-oxoethyl)-1,4,7,10-tetraazacyclododecane-1,4,7-triyl)triacetate}gadolinium [Compound 1a]
- change in tumor CNR over preinjection levels [4]: several-fold increase in CNR; also recorded: increased CNR by 2 h, but CNR had decreased by 6 h
- CNR of PR(+) tumor compared to PR(−) tumor ([4]; 2 h postinjection): significantly higher CNR
- fold change in CNR in the PR(+) tumors, percent higher than with ProGlo ([4]; 2 h time point, compared to preinjection CNR): 16%
- CNR of PR(+) tumor compared to PR(−) tumor ([4]; 6 h postinjection): significantly higher CNR
- cellular Gd(III) uptake [5]: increased slightly after 1 h and then stabilized
- RBA, fold less than that of progesterone [6]: about 100 fold

Molecule: {2,2′,2″-((10-((1-(5-(2-(10,13-Dimethyl-3-oxo-2,3,6,7,8,9,10,11,12,13,14,15,16,17-tetradecahydro-1H-cyclopenta[a]phenanthren-17-yl)-2-oxoethoxy)pentyl)-1H-1,2,3-triazol-4-yl)methyl)-1,4,7,10-tetraazacyclododecane-1,4,7-triyl)triacetate}gadolinium [Compound 2a]
- PRE-mediated transcription (luciferase activity) [7]: lowest efficacy
- change in tumor CNR over preinjection levels [4]: slow increase in CNR over time
- CNR of PR(+) tumor compared to PR(−) tumor ([4]; 6 h postinjection): significantly higher CNR
- cellular Gd(III) uptake [5]: time-dependent accumulation

Source: US8580231B2, “Compositions and methods comprising magnetic resonance contrast agents” (Northwestern University, priority 2008, dated 2013)
